According to ChEMBL document CHEMBL1201861, “Genomics of Drug Sensitity in Cancer screening data, Wellcome Trust Sanger Institute”:

Experiments:
Test in all cases: cells
[1] = tested on: MRK-nu-1; format: functional, cell-based, Homo sapiens; settings: Homo sapiens, MRK-nu-1;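 note: cell viability assay measuring growth suppression of human MRK-nu-1 cells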
Description: SANGER: Inhibition of human MRK-nu-1 cell growth in a cell viability assay.

[2] = tested on: BL-41; format: functional, cell-based, Homo sapiens; settings: Homo sapiens, BL-41;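 note: growth inhibition of human BL-41 cells, read out with a cell viability assay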
Description: SANGER: Inhibition of human BL-41 cell growth in a cell viability assay.

[3] = tested on: NCI-H1963; format: functional, cell-based, Homo sapiens; settings: Homo sapiens, NCI-H1963;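 note: cell growth inhibition of the human line, determined with a cell viability assay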
Description: SANGER: Inhibition of human NCI-H1963 cell growth in a cell viability assay.

[4] = tested on: SIMA; format: functional, cell-based, Homo sapiens; settings: Homo sapiens, SIMA;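 note: growth inhibition of SIMA cells, measured with a cell viability readout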
Description: SANGER: Inhibition of human SIMA cell growth in a cell viability assay.

[5] = tested on: CA46; format: functional, cell-based, Homo sapiens; settings: Homo sapiens, CA46;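 note: growth inhibition of human CA46 cells, read out by a cell viability assay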
Description: SANGER: Inhibition of human CA46 cell growth in a cell viability assay.

[6] = tested on: RL; format: functional, cell-based, Homo sapiens; settings: Homo sapiens, RL
Description: SANGER: Inhibition of human RL cell growth in a cell viability assay.

[7] = tested on: SCLC-21H; format: functional, cell-based, Homo sapiens; settings: Homo sapiens, SCLC-21H;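 note: growth inhibition of cultured human SCLC-21H cells, read out with a cell viability assay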
Description: SANGER: Inhibition of human SCLC-21H cell growth in a cell viability assay.

[8] = tested on: NCI-H2171; format: functional, cell-based, Homo sapiens; settings: Homo sapiens, NCI-H2171;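 note: growth inhibition of human NCI-H2171 cells, read out by a cell viability assay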
Description: SANGER: Inhibition of human NCI-H2171 cell growth in a cell viability assay.

[9] = tested on: NCI-H716; format: functional, cell-based, Homo sapiens; settings: Homo sapiens, NCI-H716;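 note: growth inhibition of human NCI-H716 cells, measured by a cell viability assay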
Description: SANGER: Inhibition of human NCI-H716 cell growth in a cell viability assay.

[10] = tested on: RL95-2; format: functional, cell-based; settings: Homo sapiens;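 note: RL95-2 growth inhibition determined through a cell viability readout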
Description: SANGER: Inhibition of human RL95-2 cell growth in a cell viability assay.

[11] = tested on: BT-20; format: functional, cell-based, Homo sapiens; settings: Homo sapiens, BT-20;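 note: cell viability assay measuring suppression of growth in human BT-20 cells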
Description: SANGER: Inhibition of human BT-20 cell growth in a cell viability assay.

[12] = tested on: LK-2; format: functional, cell-based, Homo sapiens; settings: Homo sapiens, LK-2;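 note: growth inhibition of LK-2 cells, read out with a viability assay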
Description: SANGER: Inhibition of human LK-2 cell growth in a cell viability assay.

[13] = tested on: PFSK-1; format: functional, cell-based, Homo sapiens; settings: Homo sapiens, PFSK-1;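 note: cell viability assay measuring how strongly compounds suppress growth of human PFSK-1 cells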
Description: SANGER: Inhibition of human PFSK-1 cell growth in a cell viability assay.

[14] = tested on: EFM-19; format: functional, cell-based, Homo sapiens; settings: Homo sapiens, EFM-19;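 note: growth inhibition of human EFM-19 cells, measured in a cell viability assay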
Description: SANGER: Inhibition of human EFM-19 cell growth in a cell viability assay.

[15] = tested on: LoVo; format: functional, cell-based, Homo sapiens; settings: Homo sapiens, LoVo;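 note: growth inhibition of human LoVo cells, read out with a cell viability assay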
Description: SANGER: Inhibition of human LoVo cell growth in a cell viability assay.

[16] = tested on: CAL-62; format: functional, cell-based, Homo sapiens; settings: Homo sapiens, CAL-62;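 note: growth inhibition of CAL-62 cells, read out with a cell viability assay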
Description: SANGER: Inhibition of human CAL-62 cell growth in a cell viability assay.

[17] = tested on: WM-115; format: functional, cell-based, Homo sapiens; settings: Homo sapiens, WM-115
Description: SANGER: Inhibition of human WM-115 cell growth in a cell viability assay.

[18] = tested on: C-33-A; format: functional, cell-based, Homo sapiens; settings: Homo sapiens, C-33-A;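 note: cell viability assay measuring growth inhibition of C-33-A cells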
Description: SANGER: Inhibition of human C-33-A cell growth in a cell viability assay.

[19] = tested on: HO-1-N-1; format: functional, cell-based, Homo sapiens; settings: Homo sapiens, HO-1-N-1;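 note: growth inhibition of human HO-1-N-1 cells, read out with a cell viability assay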
Description: SANGER: Inhibition of human HO-1-N-1 cell growth in a cell viability assay.

[20] = tested on: HT-3; format: functional, cell-based, Homo sapiens; settings: Homo sapiens, HT-3;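 note: growth inhibition measured with a cell viability readout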
Description: SANGER: Inhibition of human HT-3 cell growth in a cell viability assay.

[21] = tested on: HSC-3; format: functional, cell-based, Homo sapiens; settings: Homo sapiens, HSC-3
Description: SANGER: Inhibition of human HSC-3 cell growth in a cell viability assay.

[22] = tested on: A 172; format: functional, cell-based, Homo sapiens; settings: Homo sapiens, A 172;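 note: growth inhibition of A172 cells, measured with a cell viability readout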
Description: SANGER: Inhibition of human A172 cell growth in a cell viability assay.

[23] = tested on: RMG-I; format: functional, cell-based, Homo sapiens; settings: Homo sapiens, RMG-I;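 note: growth inhibition of human RMG-I cells, read out with a cell viability assay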
Description: SANGER: Inhibition of human RMG-I cell growth in a cell viability assay.

[24] = tested on: HCC38; format: functional, cell-based, Homo sapiens; settings: Homo sapiens, HCC38;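 note: cell viability assay on the human HCC38 cell line, with IC50 marking the concentration that inhibits cell growth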
Description: SANGER: Inhibition of human HCC38 cell growth in a cell viability assay.

[25] = tested on: SK-MES-1; format: functional, cell-based, Homo sapiens; settings: Homo sapiens, SK-MES-1;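 note: growth inhibition of human SK-MES-1 cells, read out with a cell viability assay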
Description: SANGER: Inhibition of human SK-MES-1 cell growth in a cell viability assay.

[26] = tested on: RPMI-7951; format: functional, cell-based, Homo sapiens; settings: Homo sapiens, RPMI-7951
Description: SANGER: Inhibition of human RPMI-7951 cell growth in a cell viability assay.

[27] = tested on: SW1463; format: functional, cell-based, Homo sapiens; settings: Homo sapiens, SW1463;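 note: growth inhibition of SW1463 cells, determined with a cell viability assay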
Description: SANGER: Inhibition of human SW1463 cell growth in a cell viability assay.

[28] = tested on: HT-1080; format: functional, cell-based, Homo sapiens; settings: Homo sapiens, HT-1080
Description: SANGER: Inhibition of human HT-1080 cell growth in a cell viability assay.

[29] = tested on: G-361; format: functional, cell-based, Homo sapiens; settings: Homo sapiens, G-361
[30] = tested on: DOK; format: functional, cell-based, Homo sapiens; settings: Homo sapiens, DOK;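 note: cell viability assay read-out, values reflect inhibition of cell growth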
Description: SANGER: Inhibition of human DOK cell growth in a cell viability assay.

[31] = tested on: BHT-101; format: functional, cell-based, Homo sapiens; settings: Homo sapiens, BHT-101
Description: SANGER: Inhibition of human BHT-101 cell growth in a cell viability assay.

[32] = tested on: LCLC-103H cell line; format: functional, cell-based, Homo sapiens; settings: Homo sapiens, LCLC-103H
Description: SANGER: Inhibition of human LCLC-103H cell growth in a cell viability assay.

[33] = tested on: NCI-H661; format: functional, cell-based, Homo sapiens; settings: Homo sapiens, NCI-H661;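 note: cell viability assay read-out, IC50 being the concentration that inhibits growth of the cells by half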
Description: SANGER: Inhibition of human NCI-H661 cell growth in a cell viability assay.

[34] = tested on: AU565; format: functional, cell-based, Homo sapiens; settings: Homo sapiens, AU565;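 note: cell viability assay measuring growth inhibition of human AU565 cells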
Description: SANGER: Inhibition of human AU565 cell growth in a cell viability assay.

[35] = tested on: SCC-25; format: functional, cell-based, Homo sapiens; settings: Homo sapiens, SCC-25;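 note: growth inhibition of SCC-25 cells, measured with a cell viability assay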
Description: SANGER: Inhibition of human SCC-25 cell growth in a cell viability assay.

[36] = tested on: SW13; format: functional, cell-based, Homo sapiens; settings: Homo sapiens, SW13;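 note: IC50 is inhibition of SW13 cell growth, read out with a cell viability assay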
Description: SANGER: Inhibition of human SW13 cell growth in a cell viability assay.

[37] = tested on: SK-LU-1; format: functional, cell-based, Homo sapiens; settings: Homo sapiens, SK-LU-1;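 note: cell viability assay measuring growth inhibition of human SK-LU-1 cells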
Description: SANGER: Inhibition of human SK-LU-1 cell growth in a cell viability assay.

[38] = tested on: HSC-2; format: functional, cell-based, Homo sapiens; settings: Homo sapiens, HSC-2;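 note: growth inhibition of human HSC-2 cells, read out by a cell viability assay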
Description: SANGER: Inhibition of human HSC-2 cell growth in a cell viability assay.

[39] = tested on: HCC1806; format: functional, cell-based, Homo sapiens; settings: Homo sapiens, HCC1806;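 note: growth inhibition of the cancer cell line, determined with a cell viability assay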
Description: SANGER: Inhibition of human HCC1806 cell growth in a cell viability assay.

[40] = tested on: HEC-1; format: functional, cell-based, Homo sapiens; settings: Homo sapiens, HEC-1;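 note: growth inhibition of the cell line, read out with a cell viability assay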
Description: SANGER: Inhibition of human HEC-1 cell growth in a cell viability assay.

[41] = tested on: J82; format: functional, cell-based, Homo sapiens; settings: Homo sapiens, J82;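 note: growth inhibition of J82 cells, read out with a cell viability assay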
Description: SANGER: Inhibition of human J82 cell growth in a cell viability assay.

[42] = tested on: KYSE-270; format: functional, cell-based, Homo sapiens; settings: Homo sapiens, KYSE-270;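 note: cell growth inhibition measured with a viability assay in the human KYSE-270 line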
Description: SANGER: Inhibition of human KYSE-270 cell growth in a cell viability assay.

[43] = tested on: NCI-H1623; format: functional, cell-based, Homo sapiens; settings: Homo sapiens, NCI-H1623;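 note: cell viability assay used as the read-out for growth inhibition of NCI-H1623 cells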
Description: SANGER: Inhibition of human NCI-H1623 cell growth in a cell viability assay.

[44] = tested on: HT-29; format: functional, cell-based, Homo sapiens; settings: Homo sapiens, HT-29;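 note: growth inhibition of human HT-29 cells, read out by a cell viability assay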
Description: SANGER: Inhibition of human HT-29 cell growth in a cell viability assay.

[45] = tested on: A2780; format: functional, cell-based, Homo sapiens; settings: Homo sapiens, A2780;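 note: growth inhibition of A2780 cells, read out with a cell viability assay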
Description: SANGER: Inhibition of human A2780 cell growth in a cell viability assay.

[46] = tested on: 786-0; format: functional, cell-based, Homo sapiens; settings: Homo sapiens
Description: SANGER: Inhibition of human 786-0 cell growth in a cell viability assay.

[47] = tested on: NCI-H2052; format: functional, cell-based, Homo sapiens; settings: Homo sapiens, NCI-H2052;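 note: growth inhibition of NCI-H2052 cells, read out with a cell viability assay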
Description: SANGER: Inhibition of human NCI-H2052 cell growth in a cell viability assay.

[48] = tested on: YKG-1; format: functional, cell-based, Homo sapiens; settings: Homo sapiens, YKG-1;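 note: cell growth inhibition, read out with a viability assay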
Description: SANGER: Inhibition of human YKG-1 cell growth in a cell viability assay.

[49] = tested on: NY; format: functional, cell-based, Homo sapiens; settings: Homo sapiens, NY
Description: SANGER: Inhibition of human NY cell growth in a cell viability assay.

COc1cc2ncn(-c3cc(OCc4ccccc4S(C)(=O)=O)c(C#N)s3)c2cc1OC [GSK-319347A]
IC50 [1]: > 5000 nM
IC50 [2]: > 5000 nM
IC50 [3]: > 5000 nM
IC50 [4]: > 5000 nM
IC50 [5]: > 5000 nM
IC50 [6]: > 5000 nM
IC50 [7]: > 5000 nM
IC50 [8]: > 5000 nM
IC50 [9]: > 5000 nM
IC50 [10]: > 5000 nM

CC[C@H](CO)Nc1nc(NCc2ccccc2)c2ncn(C(C)C)c2n1 [SELICICLIB]
IC50 [1]: 7130 nM
IC50 [2]: > 16000 nM
IC50 [3]: > 16000 nM
IC50 [4]: > 16000 nM
IC50 [5]: > 16000 nM
IC50 [6]: > 16000 nM
IC50 [7]: > 16000 nM
IC50 [8]: > 16000 nM
IC50 [9]: > 16000 nM
IC50 [10]: > 16000 nM

CC(=O)O[C@H]1C(=O)[C@@]2(C)[C@H]([C@H](OC(=O)c3ccccc3)[C@]3(O)C[C@H](OC(=O)[C@H](O)[C@@H](NC(=O)c4ccccc4)c4ccccc4)C(C)=C1C3(C)C)[C@]1(OC(C)=O)CO[C@@H]1C[C@@H]2O [PACLITAXEL]
IC50 [1]: 2.99 nM
IC50 [2]: 9.34 nM
IC50 [3]: 31.3 nM
IC50 [4]: > 102 nM
IC50 [5]: > 102 nM
IC50 [6]: > 102 nM
IC50 [7]: 58.8 nM
IC50 [8]: > 102 nM
IC50 [9]: > 102 nM
IC50 [10]: 0.668 nM

CCN(CC)CCNC(=O)c1c(C)[nH]c(/C=C2\C(=O)Nc3ccc(F)cc32)c1C [SUNITINIB]
IC50 [1]: > 8000 nM
IC50 [2]: 2910 nM
IC50 [3]: > 8000 nM
IC50 [4]: > 8000 nM
IC50 [5]: 7580 nM
IC50 [6]: > 8000 nM
IC50 [7]: > 8000 nM
IC50 [8]: > 8000 nM
IC50 [9]: > 8000 nM
IC50 [10]: 2110 nM

Cc1ccc(-c2c(C(=O)CCl)n(CCCO)c3ncnc(N)c23)cc1
IC50 [1]: 2520 nM
IC50 [2]: > 4000 nM
IC50 [3]: > 4000 nM
IC50 [4]: > 4000 nM
IC50 [5]: > 4000 nM
IC50 [6]: > 4000 nM
IC50 [7]: > 4000 nM
IC50 [8]: > 4000 nM
IC50 [9]: > 4000 nM
IC50 [10]: > 4000 nM

OCCCNc1cc(-c2ccnc(Nc3cccc(Cl)c3)n2)ccn1
IC50 [1]: 37.3 nM
IC50 [2]: 33.6 nM
IC50 [3]: 93.1 nM
IC50 [4]: > 256 nM
IC50 [5]: > 256 nM
IC50 [6]: > 256 nM
IC50 [7]: > 256 nM
IC50 [8]: > 256 nM
IC50 [9]: > 256 nM
IC50 [10]: 177 nM

N[C@@H](CSC(c1ccccc1)(c1ccccc1)c1ccccc1)C(=O)O [S-TRITYL-L-CYSTEINE]
IC50 [1]: 760 nM
IC50 [2]: 1640 nM
IC50 [3]: 1150 nM
IC50 [4]: > 5120 nM
IC50 [5]: > 5120 nM
IC50 [6]: > 5120 nM
IC50 [7]: 2830 nM
IC50 [8]: > 5120 nM
IC50 [9]: > 5120 nM
IC50 [10]: 605 nM

COc1cc(-c2nn([C@H]3CC[C@H](N4CCN(C(C)=O)CC4)CC3)c3ncnc(N)c23)ccc1NC(=O)c1cc2ccccc2n1C
IC50 [1]: 2950 nM
IC50 [2]: 1690 nM
IC50 [3]: > 5120 nM
IC50 [4]: > 5120 nM
IC50 [5]: > 5120 nM
IC50 [6]: > 5120 nM
IC50 [7]: > 5120 nM
IC50 [8]: > 5120 nM
IC50 [9]: > 5120 nM
IC50 [10]: 379 nM

COc1cc(N2CCN(C)CC2)ccc1Nc1ncc2c(n1)N(C)c1ccccc1C(=O)N2C
IC50 [1]: > 8000 nM
IC50 [2]: 3650 nM
IC50 [3]: > 8000 nM
IC50 [4]: > 8000 nM
IC50 [5]: > 8000 nM
IC50 [6]: 2780 nM
IC50 [7]: > 8000 nM
IC50 [8]: > 8000 nM
IC50 [9]: > 8000 nM
IC50 [10]: > 8000 nM

C#Cc1cccc(Nc2ncnc3cc(OCCOC)c(OCCOC)cc23)c1 [ERLOTINIB]
IC50 [1]: > 2000 nM
IC50 [2]: > 2000 nM
IC50 [3]: > 2000 nM
IC50 [4]: > 2000 nM
IC50 [5]: > 2000 nM
IC50 [6]: > 2000 nM
IC50 [8]: > 2000 nM
IC50 [9]: > 2000 nM
IC50 [10]: > 2000 nM

N#Cc1c(O)c2c(-c3ccc(-c4ccccc4O)cc3)csc2[nH]c1=O
IC50 [11]: > 1020 nM
IC50 [12]: > 1020 nM
IC50 [1]: 178 nM
IC50 [13]: > 1020 nM
IC50 [14]: > 1020 nM
IC50 [15]: > 1020 nM
IC50 [16]: > 1020 nM
IC50 [17]: > 1020 nM
IC50 [2]: 189 nM
IC50 [3]: > 1020 nM
IC50 [18]: > 1020 nM
IC50 [19]: > 1020 nM
IC50 [20]: > 1020 nM
IC50 [21]: > 1020 nM
IC50 [22]: > 1020 nM
IC50 [23]: > 1020 nM
IC50 [24]: > 1020 nM
IC50 [25]: > 1020 nM
IC50 [26]: > 1020 nM
IC50 [27]: > 1020 nM
IC50 [28]: > 1020 nM
IC50 [29]: 88.1 nM
IC50 [30]: > 1020 nM
IC50 [31]: > 1020 nM
IC50 [32]: > 1020 nM
IC50 [33]: > 1020 nM
IC50 [34]: > 1020 nM
IC50 [4]: > 1020 nM
IC50 [35]: > 1020 nM
IC50 [36]: > 1020 nM
IC50 [5]: 196 nM
IC50 [37]: > 1020 nM
IC50 [38]: > 1020 nM
IC50 [39]: > 1020 nM
IC50 [40]: > 1020 nM
IC50 [41]: > 1020 nM
IC50 [6]: > 1020 nM
IC50 [7]: > 1020 nM
IC50 [8]: 622 nM
IC50 [42]: > 1020 nM
IC50 [43]: > 1020 nM
IC50 [44]: > 1020 nM
IC50 [9]: > 1020 nM
IC50 [10]: > 1020 nM
IC50 [45]: > 1020 nM
IC50 [46]: > 1020 nM
IC50 [47]: > 1020 nM
IC50 [48]: > 1020 nM
IC50 [49]: > 1020 nM

COc1cc2ncn(-c3cc(OCc4ccccc4C(F)(F)F)c(C(N)=O)s3)c2cc1OC [GW843682X]
IC50 [1]: 30.1 nM
IC50 [2]: 10.9 nM
IC50 [3]: 13.8 nM
IC50 [4]: > 256 nM
IC50 [5]: > 256 nM
IC50 [6]: > 256 nM
IC50 [7]: 90.2 nM
IC50 [8]: > 256 nM
IC50 [9]: > 256 nM
IC50 [10]: 11.3 nM
